Laboratory results: patent US20240041851A1 (priority 2020, published 2024)
Read-outs that look alike come from different tables or passages of the source.

Key:
[1] = system: SARS-CoV-2; experiment: Simultaneous Stellaris FISH and immunofluorescence: viral +strand gRNA and nucleocapsid protein (Np); assay type: cell-based; settings: for restoration of viral gRNA levels in MTX-treated cells: 10011M thymidine or 1 mM formate added to 1 μM MTX; for restoration of viral gRNA levels in MTX-treated cells / rescue of translation of viral Np in MTX-treated cells: 48 hours; for rescue of translation of viral Np in MTX-treated cells: thymidine or 1 mM formate added to 1 μM MTX
[2] = system: SARS-CoV-2; assay type: cell-based; settings: for rescue of virion production in MTX-treated cells: thymidine or 1 mM formate added to 1 μM MTX, 48 hours
[3] = system: SARS-CoV-2 infected Vero E6 TMPRSS2+ cells; experiment: Live cell number (cytopathic effect) quantification assay, Viral Tox-Glo; assay type: cell-based, African Green Monkey; settings: for rescue of CPE in MTX-treated cells: thymidine or 1 mM formate added to 1 μM MTX, 48 hours
[4] = system: RNA flavivirus Zika; settings: cited from earlier work

## O=C[O-].[Na+] [formate, sodium formate]
[1]
  restoration of viral gRNA levels in MTX-treated cells: could only partially restore
  rescue of translation of viral Np in MTX-treated cells: unable to rescue
[2]; 1 mM formate added to 10 μM SHIN1, 48 hours
  reversal of SHIN1 effects (virus titer, gRNA, nucleoprotein, CPE): fully reversed
[2]
  rescue of virion production in MTX-treated cells: unable to rescue
[3]
  rescue of CPE in MTX-treated cells: unable to rescue

## C/C=C(\C)[C@H](O)[C@H](C)/C=C(C)/C=C/C/C(C)=C/Cc1nc(OC)c(OC)c(O)c1C [Piericidin A]
[1]
  Np levels: did not have a major impact
  viral gRNA levels: did not have a major impact
[2]
  secreted virus levels: did not have a major impact
[2]; listed as PierA
  secreted virus levels: did not reduce viral replication
[3]
  viral CPE: reduced viral CPE

## O=C(COc1ccc(Cl)cc1)NC1CCC(NC(=O)COc2ccc(Cl)cc2)CC1 (centres unmarked) [ISRIB]
[1]
  Np expression: did not appreciably diminish
  viral gRNA expression: did not appreciably diminish
[3]
  number of live cells: increased the number of live cells

## CCCCS(=N)(=O)CCC(N)C(=O)O [BSO, L-buthionine-sulfoximine]
[1]
  Np levels: did not have any apparent effect
  viral gRNA levels: did not have any apparent effect

## Cc1cn([C@H]2C[C@H](O)[C@@H](CO)O2)c(=O)[nH]c1=O [thymidine]
[1]
  restoration of viral gRNA levels in MTX-treated cells: could only partially restore
  rescue of translation of viral Np in MTX-treated cells: unable to rescue
[2]
  rescue of virion production in MTX-treated cells: unable to rescue
[3]
  rescue of CPE in MTX-treated cells: unable to rescue

## CN(Cc1cnc2nc(N)nc(N)c2n1)c1ccc(C(=O)N[C@@H](CCC(=O)O)C(=O)O)cc1 [methotrexate]
[1]
  Np levels: reduced
  viral gRNA levels: reduced
[4]
  replication of the RNA flavivirus Zika: impair replication
[2]
  diminished secretion of infectious virion: ~2 log
[3]
  virus-induced CPE: significantly blocked virus-induced CPE

## O=c1[nH]cnc2nc[nH]c12 [hypoxanthine]
[2]
  reversal of all effects of MTX (CPE, gRNA, Np, infectious virion): could be reversed

## Cc1n[nH]c2c1C(c1cc(CO)cc(-c3ccccc3)c1)(C(C)C)C(C#N)=C(N)O2 (centres unmarked) [SHIN1]
[1]
  +strand gRNA levels: diminished
  nucleoprotein levels: diminished
[2]
  reduction of infectious virus titer: ~1 log
[3]
  viral CPE: induced resistance to viral CPE
